Assay: UV absorption of diluted aqueous dispersions in UV spectrophotometer
Type: physicochemical
Conditions: pure lipid solution in 96% ethanol or aqueous surfactant solution of the same concentration; 250-450 nm
Excerpt: The UV-blocking action of the agent was studied by measuring the UV absorption of the lipid particle dispersion in a UV spectrophotometer. The criterion was the reduced permeability of the lipid particle dispersion for UV radiation in the wavelength range up 280 nm (UV C), from 280 nm to 315 nm (=UV B) und from 315 nm to 400 nm (UV A). A further test to quantify the UV-blocking action was the determination of the reduced permeability of particle films using the standard test with Transpore™ tape (B. L. Diffey, P. M. Farr, Sunscreen protection against UVB, UVA and blue light; an in vivo and in vitro comparison, British Journal of Dermatology 124, 1991, 258-263). The particle films were produced by spreading the particle dispersion on Transpore™ tape and then air-drying. The films thus produced were then glued onto one side of a quartz cuvette and the UV permeability was determined by a photometer. The measurements took place against the corresponding references, e.g. O/W emulsion with the same lipid content as well as UV blockers incorporated into the oil phase of an emulsion.
A lipid particle dispersion consisting of 10% (m/m) cetyl palmitate, 1.2% (m/m) polyglycerol methylglucose distearate (Tego Care 450) and water was produced by high pressure homogenization. The mixture of lipid and emulsifier was melted at 75° C. and dispersed in the aqueous solution with an Ultra-Turrax T25 with dispersing tool S25, Janke und Kunkel (8000 rpm for 1 minute). The obtained pre-emulsion was then homogenized with an APV Gaulin LAB 40 homogenizer at 500 bar with 3 cycles at 75° C. Lipid particles resulted with a PCS diameter of 221 nm and a polydispersity index of 0.06. For comparison, an emulsion system was produced in which the 10% cetyl palmitate was replaced by 10% Miglyol 812. The production parameter was dispersion with the Ultra-Turrax (8000 rpm for 1 minute). The UV-blocking action was examined with a Uvikon 940 spectrophotometer, Kontron, in the wavelength range of 250-450 nm. […]

| Compound | absorption over the whole measurement range |
| --- | --- |
| CCCCCCCCCCCCCCCCCCO [stearyl alcohol] | did not absorb |
| CCCCCCCCCCCCCCCCOC(=O)CCCCCCCCCCCCCCC [cetyl palmitate] | did not absorb |
| polyglycerol methylglucose distearate [Tego Care 450] | did not absorb |

Source: patent US6814959B1, “UV radiation reflecting or absorbing agents, protecting against harmful UV radiation and reinforcing the natural skin barrier” (PharmaSol GmbH, priority 1999, dated 2004)
